# Test results from patent publication US10800778B2 (Entasis Therapeutics Limited, priority 2016, dated 2020).
# Where a name gives a salt, the structure may show the parent alone.
# Columns and labels:
# [1] = Stability/conversion of esters in rat liver S9; type: in vitro ADME
# Description: (§1) The human intestinal S9 with the absence of PMSF, human liver S9, rat intestinal S9, and rat liver S9 preparations were obtained from Xenotech (Lenexa, Kans.). The 500-μL incubation solution contained 0.8 mg/mL of enzyme (or no enzyme for buffer stability), 10 μM of test compounds in 100 mM of HEPES buffer, pH 7.4. The hydrolysis reactions were conducted in a 1-mL glass insert (Analytical Sales, Pompton Plains, N.J.) in a shake water bath at 37° C. At 0, 2, 5, 10, 15, 30 and 60 min, the reaction was terminated by pipetting 50 μL incubate to a 96 DeepWell plate (Thermo Fisher Scientific, Rochester, N.Y.) containing 100 μL of acetonitrile with 250 ng/mL of Carbutamide (Sigma-Aldrich, St. Louis, Miss.) as the internal standard. The crashed solutions were then vortexed well followed by centrifuge at 4000 rpm for 15 min at 4° C. The extract was transferred to a new 96 DeepWell plate for LC-MS/MS analysis.
# (§2) LC-MS/MS analysis was done using an AB Sciex QTrap 6500 mass spectrometer under positive ionization mode, coupled to a Schimadzu Nexera LC system.
# (§3) A Waters Atlantis T3 (3 μm, 3.0×50 mm) column was used for separation. The mobile phase consisted 0.1% formic acid in water (A) and 0.1% formic acid in acetonitrile (B) with a flow rate set at 1.2 mL/min. For the prodrug analysis, the Multiple Reaction Monitoring (MRM) specific for each compound was set up so that both prodrug and its hydrolyzed active can be monitored simultaneously.
# (§4) Half-lives listed are based on disappearance of starting ester.
# [2] = Stability/conversion of esters in human liver S9; type: in vitro ADME
# Description: as §1, §2, §3, §4
# [3] = Stability in pH 7.4 buffer (no enzyme); type: physicochemical; conditions: read-out: T1/2 pH 7.4 Buffer
# Description: as §1, §2, §3, §4
# [4] = Stability/conversion of esters in human intestinal S9; type: in vitro ADME
# Description: as §1, §2, §3, §4
# [5] = Stability/conversion of esters in rat intestinal S9; type: in vitro ADME
# Description: as §1, §2, §3, §4
# [6] = liver S9, pH 7.4, read-out: T1/2 Rat Liver S9
# [7] = liver S9, pH 7.4, read-out: T1/2 Human Liver S9
# [8] = intestinal S9 (without PMSF), pH 7.4, read-out: T1/2 Human Intestinal S9
# [9] = intestinal S9, pH 7.4, read-out: T1/2 Rat Intestinal S9
SMILES,"half-life at 10 μM [1, 6] [min]","half-life at 10 μM [2, 7] [min]",half-life at 10 μM ([3]; HEPES buffer without enzyme) [min],"half-life at 10 μM [4, 8] [min]","half-life at 10 μM [5, 9] [min]","half-life at 10 μM ([1]; s9, pH 7.4, read-out: T1/2 Rat Liver S9) [min]","half-life at 10 μM ([2]; s9, pH 7.4, read-out: T1/2 Human Liver S9) [min]",half-life at 10 μM ([3]; buffer) [min],"half-life at 10 μM ([4]; s9, pH 7.4, read-out: T1/2 Human Intestinal S9) [min]","half-life at 10 μM ([5]; s9, pH 7.4, read-out: T1/2 Rat Intestinal S9) [min]"
"CCCCOC(=O)[C@@H](F)ON1C(=O)N2C[C@H]1C=C(C)[C@H]2C(N)=O [Example 50, butyl (2R)-2-[[(2S,5R)-2-carbamoyl-3-methyl-7-oxo-1,6-diazabicyclo[3.2.1]oct-3-en-6-yl]oxy]-2-fluoro-acetate]",2.8,3.5,120,73,30,,,,,
"CCCCCOC(=O)[C@@H](F)ON1C(=O)N2C[C@H]1C=C(C)[C@H]2C(N)=O [Example 51, pentyl (2R)-2-[[(2S,5R)-2-carbamoyl-3-methyl-7-oxo-1,6-diazabicyclo[3.2.1]oct-3-en-6-yl]oxy]-2-fluoro-acetate]",1.7,6.4,75,1.5,4.1,,,,,
"CCCCCCOC(=O)[C@@H](F)ON1C(=O)N2C[C@H]1C=C(C)[C@H]2C(N)=O [Example 52, hexyl (2R)-2-[[(2S,5R)-2-carbamoyl-3-methyl-7-oxo-1,6-diazabicyclo[3.2.1]oct-3-en-6-yl]oxy]-2-fluoro-acetate]",0.45,0.84,76,5.7,39,,,,,
"CC1=C[C@@H]2CN(C(=O)N2O[C@H](F)C(=O)OC(C)OC(=O)OC(C)C)[C@@H]1C(N)=O (stereo partly drawn) [Example 53, 1-isopropoxycarbonyloxyethyl (2R)-2-[[(2S,5R)-2-carbamoyl-3-methyl-7-oxo-1,6-diazabicyclo[3.2.1]oct-3-en-6-yl]oxy]-2-fluoro-acetate]",2,1.7,4.8,< 1,4.2,,,,,
"CC1=C[C@@H]2CN(C(=O)N2O[C@H](F)C(=O)OCc2ccccc2)[C@@H]1C(N)=O [Example 54, (2R)-benzyl 2-(((2S,5R)-2-carbamoyl-3-methyl-7-oxo-1,6-diazabicyclo[3.2.1]oct-3-en-6-yl)oxy)-2-fluoroacetate]",,,,,,0.9,1.9,22,5,19
"CCOC(=O)[C@H](F)ON1C(=O)N2C[C@H]1C=C(C)[C@H]2C(=O)NOC[C@@H]1CCCN1 [Example 60, ethyl (2S)-2-fluoro-2-(((2S,5R)-3-methyl-7-oxo-2-((((S)-pyrrolidin-2-yl)methoxy)carbamoyl)-1,6-diazabicyclo[3.2.1]oct-3-en-6-yl)oxy)acetate TFA salt]",10,9.9,29,22,21,,,,,
"CC1=C[C@@H]2CN(C(=O)N2O[C@H](F)C(=O)OCOC(=O)C(C)(C)C)[C@@H]1C(N)=O [Example 64, [(2R)-2-[[(2S,5R)-2-carbamoyl-3-methyl-7-oxo-1,6-diazabicyclo[3.2.1]oct-3-en-6-yl]oxy]-2-fluoro-acetyl]oxymethyl 2,2-dimethylpropanoate]",< 1,< 1,1.2,< 1,1.1,,,,,
"CC1=C[C@@H]2CN(C(=O)N2O[C@H](F)C(=O)Oc2ccc3c(c2)CCC3)[C@@H]1C(N)=O [Example 65, indan-5-yl (2R)-2-[[(2S,5R)-2-carbamoyl-3-methyl-7-oxo-1,6-diazabicyclo[3.2.1]oct-3-en-6-yl]oxy]-2-fluoro-acetate]",< 1,< 1,1.7,< 1,1.3,,,,,
"CCOC(=O)[C@H](F)ON1C(=O)N2C[C@H]1C=C(C)[C@H]2C(=O)NCO [Example 85, ethyl (2S)-2-fluoro-2-[[(2S,5R)-2-(hydroxymethylcarbamoyl)-3-methyl-7-oxo-1,6-diazabicyclo[3.2.1]oct-3-en-6-yl]oxy]acetate]",3.8,3.5,26,20,21,,,,,
"CCOC(=O)[C@@H](F)ON1C(=O)N2C[C@H]1C=C(C)[C@H]2C(=O)NCO [Example 86, ethyl (2R)-2-fluoro-2-[[(2S,5R)-2-(hydroxymethylcarbamoyl)-3-methyl-7-oxo-1,6-diazabicyclo[3.2.1]oct-3-en-6-yl]oxy]acetate]",23,24,39,36,43,,,,,
"CCOC(=O)C(F)(F)ON1C(=O)N2C[C@H]1C(C)=C[C@H]2C(N)=O [Example 90, ethyl 2-(((2S,5R)-2-carbamoyl-4-methyl-7-oxo-1,6-diazabicyclo[3.2.1]oct-3-en-6-yl)oxy)-2,2-difluoroacetate]",0.7,0.7,2.9,1,3.3,,,,,
"CCOC(=O)CON1C(=O)N2C[C@H]1C(C)=C[C@H]2C(N)=O [Example 92, ethyl 2-(((2S,5R)-2-carbamoyl-4-methyl-7-oxo-1,6-diazabicyclo[3.2.1]oct-3-en-6-yl)oxy)acetate]",11,24.8,161,193,397,,,,,
"CC1=C[C@@H](C(N)=O)N2C[C@@H]1N(OCC(=O)OC(C)C)C2=O [Example 96, isopropyl 2-(((2S,5R)-2-carbamoyl-4-methyl-7-oxo-1,6-diazabicyclo[3.2.1]oct-3-en-6-yl)oxy)acetate]",10.3,57,> 100,1480,211,,,,,
